Results taken from ChEMBL document CHEMBL1144635, “Lead optimization of methionine aminopeptidase-2 (MetAP2) inhibitors containing sulfonamides of 5,6-disubstituted anthranilic acids” (Bioorg Med Chem Lett, 2007).

What was measured:
[1] = tested on: HT-1080; assay: Antiproliferative activity against HT1080 cells; details: Homo sapiens
[2] = tested on: HT-1080; assay: Antiproliferative activity against HT1080 cells in presence of 40 mg/ml HSA; details: Homo sapiens
[3] = Half life in mouse at 10 mg/kg, iv; type: ADME, organism-based; parameters: dose 10 mg/kg, route intravenous; details: in vivo
[4] = Volume of distribution in mouse at 10 mg/kg, iv; type: ADME, organism-based; parameters: dose 10 mg/kg, route intravenous; details: in vivo, read-out: Vdss
[5] = Clearance in mouse at 10 mg/kg, iv; type: ADME, organism-based; parameters: dose 10 mg/kg, route intravenous; details: in vivo
[6] = Cmax in mouse at 30 mg/kg, po; type: ADME, organism-based; parameters: dose 30 mg/kg, route oral; details: in vivo
[7] = Oral bioavailability in mouse at 30 mg/kg, po; type: ADME, organism-based; details: in vivo

| SMILES | EC50 [1] [µM] | EC50 [2] [µM] | half-life [3] [min] | Vd [4] [L/kg] | clearance [5] [mL/min/kg] | Cmax [6] [nM] | bioavailability [7] [%] |
| --- | --- | --- | --- | --- | --- | --- | --- |
| COc1c(-c2ccoc2)ccc(NS(=O)(=O)c2ccc(F)cc2)c1C(=O)O | 3.8 |  |  |  |  |  |  |
| CCc1ccc(NS(=O)(=O)c2ccc(F)cc2/C=C\CN(CC)CC)c(C(=O)O)c1OC | 0.07 | 0.15 | 12 | 13.8 | 675 | 100 | 16 |
| CCc1ccc(NS(=O)(=O)c2ccccn2)c(C(=O)O)c1C | 12 |  | 144 | 5.5 | 26.7 | 34000 | 86 |
| COc1c(-c2ccoc2)ccc(NS(=O)(=O)c2ccc(F)cc2Br)c1C(=O)O | 11 |  |  |  |  |  |  |
| CCCc1ccccc1S(=O)(=O)Nc1ccc(CC)c(OCCN)c1C(=O)O | 83 |  |  |  |  |  |  |
| CCc1ccc(NS(=O)(=O)c2ccc(F)cc2)c(C(=O)O)c1OC | 1.4 |  |  |  |  |  |  |
| CCc1ccc(NS(=O)(=O)c2ccccc2NCCCN2CCCCC2C)c(C(=O)O)c1OC (centres undefined) | 0.37 | 1.2 |  |  |  |  |  |
| COc1c(-c2ccoc2)ccc(NS(=O)(=O)c2ccc(F)cc2NCCCN(C)C)c1C(=O)O | 0.32 | 2.9 |  |  |  |  |  |

Continued, values first:

| EC50 [1] [µM] | EC50 [2] [µM] | half-life [3] [min] | Vd [4] [L/kg] | clearance [5] [mL/min/kg] | Cmax [6] [nM] | bioavailability [7] [%] | SMILES |
| --- | --- | --- | --- | --- | --- | --- | --- |
| 0.06 | 0.2 |  |  |  |  |  | CCN(CC)C/C=C\c1cc(F)ccc1S(=O)(=O)Nc1ccc(-c2ccoc2)c(OC)c1C(=O)O |
| 0.48 | 1.9 | 18 | 2 | 83.3 | 900 | 13 | CCc1ccc(NS(=O)(=O)c2ccccc2NCCC2CCCN2C)c(C(=O)O)c1OC (centres undefined) |
| 0.25 | 0.37 | 18 | 0.8 | 35 | 5900 | 31 | CCc1ccc(NS(=O)(=O)c2ccccc2NCCCCN(C)C)c(C(=O)O)c1OC |
| 30 |  |  |  |  |  |  | CCc1ccc(NS(=O)(=O)c2ccc(F)cc2CCCN(CC)CC)c(C(=O)O)c1OCCN |
|  |  | 18 | 1.1 | 50 | 2400 | 38 | CCc1ccc(NS(=O)(=O)c2ccc(F)cc2)c(C(=O)O)c1OCCN |
| 4.9 |  |  |  |  |  |  | CCc1ccc(NS(=O)(=O)c2ccc(F)cc2)c(C(=O)O)c1C |
